Publication PMC8119466, “A screen of FDA-approved drugs identifies inhibitors of protein tyrosine phosphatase 4A3 (PTP4A3 or PRL-3)” (Scientific Reports, 2021)
Counter-ions that a name gives are not always drawn. Like-named read-outs stand apart in the source and are kept apart here.

Tests used:
Assay type in all cases: biochemical
recombinant PRL-1 = target: T1, recombinant PRL-1 (Homo sapiens, UniProt Q93096); experiment: In vitro phosphatase assay (DiFMUP hydrolysis), PRL-1; conditions: for % Phosphatase Activity (compared to DMSO) PRL-1: FDA-approved drug screen; for IC50: DiFMUP at KM, read-out: Calculated IC50, PRL-1 phosphatase activity
T1 construct: 6xHis (N, cleaved yes); made in house; host or cells: E. coli One Shot BL21 Star
T1 sequence (Q93096 1-173): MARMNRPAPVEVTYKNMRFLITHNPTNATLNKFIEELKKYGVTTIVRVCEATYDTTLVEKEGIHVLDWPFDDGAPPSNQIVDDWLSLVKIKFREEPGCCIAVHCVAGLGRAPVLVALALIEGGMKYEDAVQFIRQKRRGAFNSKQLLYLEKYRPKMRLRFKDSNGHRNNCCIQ

recombinant PRL-2 = target: T2, recombinant PRL-2 (Homo sapiens, UniProt Q12974); experiment: In vitro phosphatase assay (DiFMUP hydrolysis), PRL-2; conditions: for % Phosphatase Activity (compared to DMSO) PRL-2: FDA-approved drug screen; for IC50: DiFMUP at KM, read-out: Calculated IC50, PRL-2 phosphatase activity;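 as to all read-outs here: PRL-2 activity read as DiFMUP hydrolysis after 20 min at room temperature with drug, enzyme first pre-reduced at 4 °C for 20 min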
T2 construct: 6xHis (N, cleaved yes); made in house; host or cells: E. coli One Shot BL21 Star
T2 sequence (Q12974 1-167): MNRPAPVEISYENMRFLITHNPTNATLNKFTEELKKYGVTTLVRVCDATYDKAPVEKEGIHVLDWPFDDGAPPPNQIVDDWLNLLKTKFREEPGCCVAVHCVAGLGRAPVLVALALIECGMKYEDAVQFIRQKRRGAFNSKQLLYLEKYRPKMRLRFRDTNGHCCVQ

recombinant PRL-3 = target: T3, recombinant PRL-3 (Homo sapiens, UniProt O75365); experiment: In vitro phosphatase assay (DiFMUP hydrolysis), PRL-3; conditions: for % Phosphatase Activity (compared to DMSO) PRL-3: FDA-approved drug screen; for IC50: DiFMUP at KM, read-out: Calculated IC50, PRL-3 phosphatase activity
T3 construct: 6xHis (N, cleaved yes); made in house; host or cells: E. coli One Shot BL21 Star
T3 sequence (O75365 whole entry): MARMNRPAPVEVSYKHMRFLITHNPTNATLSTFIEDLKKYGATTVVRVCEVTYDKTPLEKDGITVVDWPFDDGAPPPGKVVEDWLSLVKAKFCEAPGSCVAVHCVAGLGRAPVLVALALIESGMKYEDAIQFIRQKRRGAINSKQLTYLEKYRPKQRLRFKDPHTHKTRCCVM

CCCCOc1ccc(C(=O)CCN2CCCCC2)cc1 [Dyclonine HCl]
% Phosphatase Activity (compared to DMSO) PRL-1 (recombinant PRL-1): 91%
% Phosphatase Activity (compared to DMSO) PRL-2 (recombinant PRL-2): 103%
% Phosphatase Activity (compared to DMSO) PRL-3 (recombinant PRL-3): 102%

CC(=O)[C@H]1CC[C@H]2[C@@H]3C=CC4=CC(=O)CC[C@@]4(C)[C@@H]3CC[C@]12C [Dydrogesterone]
% Phosphatase Activity (compared to DMSO) PRL-1 (recombinant PRL-1): 91%
% Phosphatase Activity (compared to DMSO) PRL-2 (recombinant PRL-2): 98%
% Phosphatase Activity (compared to DMSO) PRL-3 (recombinant PRL-3): 67%

Cn1c(=O)c2c(ncn2CC(O)CO)n(C)c1=O (stereo not drawn) [Dyphylline]
% Phosphatase Activity (compared to DMSO) PRL-1 (recombinant PRL-1): 100%
% Phosphatase Activity (compared to DMSO) PRL-2 (recombinant PRL-2): 103%
% Phosphatase Activity (compared to DMSO) PRL-3 (recombinant PRL-3): 75%

CCN(c1cc(-c2ccc(CN3CCOCC3)cc2)cc(C(=O)NCc2c(C)cc(C)[nH]c2=O)c1C)C1CCOCC1 [EPZ-6438]
% Phosphatase Activity (compared to DMSO) PRL-1 (recombinant PRL-1): 85%
% Phosphatase Activity (compared to DMSO) PRL-2 (recombinant PRL-2): 77%
% Phosphatase Activity (compared to DMSO) PRL-3 (recombinant PRL-3): 95%

NC(=O)C1CCCc2c1[nH]c1ccc(Cl)cc21 (stereo not drawn) [EX 527 (Selisistat)]
% Phosphatase Activity (compared to DMSO) PRL-1 (recombinant PRL-1): 99%
% Phosphatase Activity (compared to DMSO) PRL-2 (recombinant PRL-2): 106%
% Phosphatase Activity (compared to DMSO) PRL-3 (recombinant PRL-3): 84%

Clc1ccc(COC(Cn2ccnc2)c2ccc(Cl)cc2Cl)cc1 (stereo not drawn) [Econazole nitrate]
% Phosphatase Activity (compared to DMSO) PRL-1 (recombinant PRL-1): 107%
% Phosphatase Activity (compared to DMSO) PRL-2 (recombinant PRL-2): 103%
% Phosphatase Activity (compared to DMSO) PRL-3 (recombinant PRL-3): 93%

CC1=NN(c2ccccc2)C(=O)C1 [Edaravone]
% Phosphatase Activity (compared to DMSO) PRL-1 (recombinant PRL-1): 90%
% Phosphatase Activity (compared to DMSO) PRL-2 (recombinant PRL-2): 82%
% Phosphatase Activity (compared to DMSO) PRL-3 (recombinant PRL-3): 72%

CN1CCc2nc(C(=O)N[C@@H]3C[C@@H](C(=O)N(C)C)CC[C@@H]3NC(=O)C(=O)Nc3ccc(Cl)cn3)sc2C1 [Edoxaban]
% Phosphatase Activity (compared to DMSO) PRL-1 (recombinant PRL-1): 110%
% Phosphatase Activity (compared to DMSO) PRL-2 (recombinant PRL-2): 99%
% Phosphatase Activity (compared to DMSO) PRL-3 (recombinant PRL-3): 106%

O=C1Nc2ccc(Cl)cc2[C@@](C#CC2CC2)(C(F)(F)F)O1 [Efavirenz]
% Phosphatase Activity (compared to DMSO) PRL-1 (recombinant PRL-1): 87%
% Phosphatase Activity (compared to DMSO) PRL-2 (recombinant PRL-2): 72%
% Phosphatase Activity (compared to DMSO) PRL-3 (recombinant PRL-3): 97%

Cl.NCCCC(N)(C(=O)O)C(F)F.O (stereo not drawn) [Eflornithine hydrochloride hydrate]
% Phosphatase Activity (compared to DMSO) PRL-1 (recombinant PRL-1): 91%
% Phosphatase Activity (compared to DMSO) PRL-2 (recombinant PRL-2): 84%
% Phosphatase Activity (compared to DMSO) PRL-3 (recombinant PRL-3): 103%

COc1cc2c(cc1OC)CN(CCc1ccc(NC(=O)c3cccc4c(=O)c5cccc(OC)c5[nH]c34)cc1)CC2 [Elacridar (GF120918)]
% Phosphatase Activity (compared to DMSO) PRL-1 (recombinant PRL-1): 106%
% Phosphatase Activity (compared to DMSO) PRL-2 (recombinant PRL-2): 104%
% Phosphatase Activity (compared to DMSO) PRL-3 (recombinant PRL-3): 100%

CN1CCC[C@@H]1Cc1c[nH]c2ccc(CCS(=O)(=O)c3ccccc3)cc12 [Eletriptan HBr]
% Phosphatase Activity (compared to DMSO) PRL-1 (recombinant PRL-1): 109%
% Phosphatase Activity (compared to DMSO) PRL-2 (recombinant PRL-2): 121%
% Phosphatase Activity (compared to DMSO) PRL-3 (recombinant PRL-3): 92%

CCCCCCCC(=O)N[C@H](CN1CCCC1)[C@H](O)c1ccc2c(c1)OCCO2.O=C(O)C(O)C(O)C(=O)O [Eliglustat Tartrate]
% Phosphatase Activity (compared to DMSO) PRL-1 (recombinant PRL-1): 96%
% Phosphatase Activity (compared to DMSO) PRL-2 (recombinant PRL-2): 91%
% Phosphatase Activity (compared to DMSO) PRL-3 (recombinant PRL-3): 96%

O=c1oc2c(O)c(O)cc3c(=O)oc4c(O)c(O)cc1c4c23 [Ellagic acid]
% Phosphatase Activity (compared to DMSO) PRL-1 (recombinant PRL-1): 98%
% Phosphatase Activity (compared to DMSO) PRL-2 (recombinant PRL-2): 89%
% Phosphatase Activity (compared to DMSO) PRL-3 (recombinant PRL-3): 68%

CC1=NN(c2ccc(C)c(C)c2)C(=O)/C1=N\Nc1cccc(-c2cccc(C(=O)O)c2)c1O [Eltrombopag Olamine]
% Phosphatase Activity (compared to DMSO) PRL-1 (recombinant PRL-1): 56%
% Phosphatase Activity (compared to DMSO) PRL-2 (recombinant PRL-2): 66%
% Phosphatase Activity (compared to DMSO) PRL-3 (recombinant PRL-3): 35%

CC1=NN(c2ccc(C)c(C)c2)C(=O)/C1=N\Nc1cccc(-c2cccc(C(=O)O)c2)c1O [Eltromobag Olamine, reference compound]
IC50 (recombinant PRL-1; […] protein): 61 ± 15 µM
IC50 (recombinant PRL-2; […] protein): 166 ± 22 µM
IC50 (recombinant PRL-3; […] protein): 27 ± 4 µM

CC1=NN(c2ccc(C)c(C)c2)C(=O)/C1=N\Nc1cccc(-c2cccc(C(=O)O)c2)c1O [Eltromobag, reference compound]
IC50 (recombinant PRL-1; 2.5 µM protein): 56 ± 10 µM
% Phosphatase Activity (compared to DMSO) PRL-1 (recombinant PRL-1; listed as Eltrombopag): 57%
IC50 (recombinant PRL-2; 2.5 µM protein): > 100 µM
% Phosphatase Activity (compared to DMSO) PRL-2 (recombinant PRL-2; listed as Eltrombopag): 68%
IC50 (recombinant PRL-3; 2.5 µM protein): 26 ± 11 µM
% Phosphatase Activity (compared to DMSO) PRL-3 (recombinant PRL-3; listed as Eltrombopag): 66%

COc1cc2c(cc1Cc1cccc(Cl)c1F)c(=O)c(C(=O)O)cn2[C@H](CO)C(C)C [Elvitegravir (GS-9137, JTK-303)]
% Phosphatase Activity (compared to DMSO) PRL-1 (recombinant PRL-1): 82%
% Phosphatase Activity (compared to DMSO) PRL-2 (recombinant PRL-2): 84%
% Phosphatase Activity (compared to DMSO) PRL-3 (recombinant PRL-3): 81%
